{"source": "patent US20250049791A1", "about": "“Synthesis of MEK7 Inhibitors and methods of Use Thereof” (Northwestern University, priority 2023, published 2025)", "key": {"[1]": {"tested_on": "Jurkat and KOPTK1", "assay": "Washout cytotoxicity experiment", "type": "cell-based", "settings": "18 hours with compound, washed, 30 hours", "method": "T-cell cell lines Jurkat and KOPTK1 were plated in triplicates (20×10^4 cells per 96-well plate) and cultured with different concentrations of DK-2403 compound for 18 hours. Cells were washed twice to remove DK-2403 and incubated for 30 hours. Cell viability was measured (48 hours) using CellTiter-Glo luminescent cell viability assay."}, "[2]": {"tested_on": "p38α/β", "assay": "ScanEDGE competition binding, p38α/β", "settings": "ScanEDGE screen", "description": "(§1) The ScanEDGE assay, completed by DiscoverX (Eurofins) is a proprietary active site-directed competition binding assay. Compounds that bind the kinase active site prevent kinase binding to the immobilized ligand, reducing the amount of kinase captured on the solid support. Hits are identified by measuring the amount of kinase captured in experimental vs, control samples by a qPCR method that detects an associated DNA label. According to data provided by Eurofins, a typical hit at 5-10% of control signal in a 1 μM assay as shown above is generally associated with a KD in the range of 100-1,000 nM. Readings with greater than 35% of control signal correspond to exceeding large dissociation constants."}, "[3]": {"tested_on": "JNK1/2/3", "assay": "ScanEDGE competition binding, JNK1/2/3", "settings": "ScanEDGE screen", "description": "as §1"}, "[4]": {"tested_on": "T-ALL cell lines (JURKAT, KOPT-K1, RPMI-8402, ALL-SIL)", "assay": "Cytotoxicity assay (CellTiter-Glo), T-ALL cell lines", "type": "cell-based", "settings": "48 hours"}, "[5]": {"biological_target": "T1, FLT3 (Homo sapiens, UniProt P36888)", "T1 construct": "purchased DiscoverX (Eurofins)", "T1 sequence (P36888 27-993)": "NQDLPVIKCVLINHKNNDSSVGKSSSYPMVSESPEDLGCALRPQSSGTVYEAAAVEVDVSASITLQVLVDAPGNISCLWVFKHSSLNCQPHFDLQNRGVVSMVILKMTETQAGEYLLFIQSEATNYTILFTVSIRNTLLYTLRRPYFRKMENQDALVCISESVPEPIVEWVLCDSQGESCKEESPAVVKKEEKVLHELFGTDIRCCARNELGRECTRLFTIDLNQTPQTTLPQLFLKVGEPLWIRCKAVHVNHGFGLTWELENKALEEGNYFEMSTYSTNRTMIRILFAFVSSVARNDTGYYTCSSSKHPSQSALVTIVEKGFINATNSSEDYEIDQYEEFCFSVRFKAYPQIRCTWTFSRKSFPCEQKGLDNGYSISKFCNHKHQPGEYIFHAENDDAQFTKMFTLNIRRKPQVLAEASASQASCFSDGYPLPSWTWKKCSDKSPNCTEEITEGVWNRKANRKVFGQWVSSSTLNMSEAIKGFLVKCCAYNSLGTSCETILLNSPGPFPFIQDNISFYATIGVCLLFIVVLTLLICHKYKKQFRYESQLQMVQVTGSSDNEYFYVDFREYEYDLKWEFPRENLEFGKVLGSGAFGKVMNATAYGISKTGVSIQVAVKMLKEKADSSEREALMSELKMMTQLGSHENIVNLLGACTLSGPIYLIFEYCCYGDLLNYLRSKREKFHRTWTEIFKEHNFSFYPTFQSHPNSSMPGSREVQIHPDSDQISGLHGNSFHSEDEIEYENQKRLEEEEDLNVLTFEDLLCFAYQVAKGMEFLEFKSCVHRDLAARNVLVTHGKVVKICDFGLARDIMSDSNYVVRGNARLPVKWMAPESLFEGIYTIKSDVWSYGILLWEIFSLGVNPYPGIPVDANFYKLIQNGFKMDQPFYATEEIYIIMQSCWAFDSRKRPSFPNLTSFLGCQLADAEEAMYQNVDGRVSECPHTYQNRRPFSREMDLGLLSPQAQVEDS", "assay": "ScanEDGE competition binding, FLT3", "settings": "ScanEDGE screen", "description": "as §1"}}}
{"smiles": "O=C(CCl)Nc1cccc(Oc2cc(NCc3ccccc3)ncn2)c1", "note": "[Compound 25, N-(3-((6-(benzylamino)pyrimidin-4-yl)oxy)phenyl)-2-chloroacetamide]", "values": [{"measurement": "cytotoxicity after washout", "setting": "[1]", "value": "resistant to washout"}, {"measurement": "activity on p38α/β", "setting": "[2]", "value": "no appreciable activity"}, {"measurement": "activity on JNK1/2/3", "setting": "[3]", "value": "no appreciable activity"}, {"measurement": "dose-response cytotoxicity", "setting": "[4]", "value": "marked cytotoxicity"}, {"measurement": "engagement of FLT3", "setting": "[5]", "value": "does not engage"}]}
